Laboratory results published in paper PMC10700596 (Nature Communications, 2023).
pIC50: −log10 of the molar value.

Biological target: T1, EP4R (Homo sapiens, UniProt P35408)
T1 construct: Tango fusion cassette (only 'tango' is printed); expressed in transfected cells; host or cells: HTLA cells (tTA-dependent luciferase reporter, β-arrestin2-TEV fusion)
Assay: PRESTO-Tango β-arrestin2 recruitment assay
Assay type: cell-based
Settings: for IC50: PRESTO-Tango IC50 (nM); for Ki: PRESTO-Tango Ki* (nM)

[1] = PRESTO-Tango -logIC50, antagonist mode, EC80 of PGE2
[2] = calculated using the Cheng Prusoff equation

T1 sequence (P35408 whole entry, the tested form may be a part): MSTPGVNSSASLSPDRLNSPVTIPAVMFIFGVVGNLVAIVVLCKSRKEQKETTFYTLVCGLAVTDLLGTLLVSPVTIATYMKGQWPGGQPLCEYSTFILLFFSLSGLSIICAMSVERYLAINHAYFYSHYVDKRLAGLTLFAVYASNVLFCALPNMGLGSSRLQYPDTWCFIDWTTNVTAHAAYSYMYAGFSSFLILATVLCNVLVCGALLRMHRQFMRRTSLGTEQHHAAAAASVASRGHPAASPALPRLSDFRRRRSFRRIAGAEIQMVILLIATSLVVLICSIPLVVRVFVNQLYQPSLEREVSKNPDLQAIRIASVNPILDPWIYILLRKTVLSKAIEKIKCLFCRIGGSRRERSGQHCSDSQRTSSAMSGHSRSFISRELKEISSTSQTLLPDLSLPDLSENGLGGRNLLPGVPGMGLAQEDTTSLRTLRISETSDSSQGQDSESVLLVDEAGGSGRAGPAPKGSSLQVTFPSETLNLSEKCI

Row | SMILES | IC50 (antagonist mode, EC80 of PGE2) | pIC50 [1] | further results
1 | CN(c1ncnc2[nH]c3ccccc3c12)C1CC2(CCC(C(=O)O)CC2)C1 (stereo not shown) [Compound 76, CN(C1CC2(C1)CCC(CC2)C(=O)O)C=3N=CN=C4NC=5C=CC=CC5C34] | – | – | IC50: 1170 nM; Ki: 234 nM
2 | Cc1cc(C(=O)NC2CCCC(C(=O)O)CC2)c(C)n1-c1ccccc1 (stereo not shown) [Compound 78, CC1=CC(C(=O)NC2CCCC(CC2)C(=O)O)=C(C)N1C=3C=CC=CC3] | 7080 nM | – | Ki: 1420 nM
3 | O=C(O)C1CCC2(CC1)CC(Nc1ncnc3c1oc1ccccc13)C2 (stereo not shown) [Compound 84, OC(=O)C1CCC2(CC(C2)NC=3N=CN=C4C=5C=CC=CC5OC34)CC1] | 5730 nM | – | Ki: 1150 nM
4 | O=C(O)C1CCC2(CC1)CC(Nc1ncnc3sc(-c4ccccc4)cc13)C2 (stereo not shown) [Compound 85, OC(=O)C1CCC2(CC(C2)NC=3N=CN=C4SC(=CC34)C=5C=CC=CC5)CC1] | > 10000 nM | 3.11 | –
5 | Cc1csc2ncnc(NC3CC4(CCC(C(=O)O)CC4)C3)c12 (stereo not shown) [Compound 86, CC1=CSC=2N=CN=C(NC3CC4(C3)CCC(CC4)C(=O)O)C12] | 7960 nM | – | Ki [2]: 1590 nM
6 | CC(C)c1ccc2ncnc(NC3CC4(CCC(C(=O)O)CC4)C3)c2c1 (stereo not shown) [Compound 87, CC(C)C=1C=CC=2N=CN=C(NC3CC4(C3)CCC(CC4)C(=O)O)C2C1] | > 10000 nM | 4.71 | –
7 | Cc1cc2c(NC3CC4(CCC(C(=O)O)CC4)C3)ncnc2s1 (stereo not shown) [Compound 88, CC1=CC=2C(NC3CC4(C3)CCC(CC4)C(=O)O)=NC=NC2S1] | – | – | pIC50 (PRESTO-Tango -logIC50): 3.15; IC50: > 10000 nM
8 | O=C(O)C1CCC2(CC1)CC(Nc1nc(C(F)(F)F)nc3ccccc13)C2 (stereo not shown) [Compound 90, OC(=O)C1CCC2(CC(C2)NC=3N=C(N=C4C=CC=CC34)C(F)(F)F)CC1] | 3870 nM | – | Ki [2]: 774 nM
9 | O=C(O)C1CCC2(CC1)CC(Nc1ncnc3sc4c(c13)CCC4)C2 (stereo not shown) [Compound 91, OC(=O)C1CCC2(CC(C2)NC=3N=CN=C4SC=5CCCC5C34)CC1] | 4030 nM | – | Ki: 807 nM
10 | CC1CCc2c(sc3ncnc(NC4CC5(CCC(C(=O)O)CC5)C4)c23)C1 (stereo not shown) [Compound 92, CC1CCC2=C(C1)SC=3N=CN=C(NC4CC5(C4)CCC(CC5)C(=O)O)C23] | 806 nM | – | Ki [2]: 161 nM
11 | Cc1nc(NC2CC3(CCC(C(=O)O)CC3)C2)c2cc(-c3ccccc3)sc2n1 (stereo not shown) [Compound 93, CC=1N=C(NC2CC3(C2)CCC(CC3)C(=O)O)C=4C=C(SC4N1)C=5C=CC=CC5] | 7350 nM | – | Ki [2]: 1470 nM
12 | Cc1nc2ncnn2c(NC2CC3(CCC(C(=O)O)CC3)C2)c1C (stereo not shown) [Compound 94, CC1=NC2=NC=NN2C(NC3CC4(C3)CCC(CC4)C(=O)O)=C1C] | – | – | pIC50 (PRESTO-Tango -logIC50): 4.92; IC50: > 10000 nM
13 | O=C(NC1CCCC(C(=O)O)CC1)c1nn(-c2ccccc2)c2c1CCC2 (stereo not shown) [Compound 98, OC(=O)C1CCCC(CC1)NC(=O)C2=NN(C=3CCCC23)C=4C=CC=CC4] | 2060 nM | – | Ki [2]: 411 nM
14 | O=C(O)C[C@@H]1CC[C@H](NC(=O)c2csc(C3CCCCC3)c2)C1 [Compound 100, OC(=O)C[C@@H]1CC[C@@H](C1)NC(=O)C2=CSC(=C2)C3CCCCC3] | 1880 nM | 5.74 | Ki: 376 nM
15 | O=C(NC1CCCC(C(=O)O)CC1)c1csc(C2CCCCC2)n1 (stereo not shown) [Compound 106, OC(=O)C1CCCC(CC1)NC(=O)C2=CSC(=N2)C3CCCCC3] | > 10000 nM | 4.63 | –
16 | O=C(NC1CCCC(C(=O)O)CC1)c1csc(Cc2ccccc2)c1 (stereo not shown) [Compound 107, OC(=O)C1CCCC(CC1)NC(=O)C2=CSC(CC=3C=CC=CC3)=C2] | > 10000 nM | 4.64 | –
17 | Cc1sc(C(=O)NC2CCCC(C(=O)O)CC2)cc1-c1ccc(F)cc1 (stereo not shown) [Compound 108, CC=1SC(=CC1C=2C=CC(F)=CC2)C(=O)NC3CCCC(CC3)C(=O)O] | > 10000 nM | 3.30 | –
18 | O=C(NC1CC2(CCC(C(=O)O)CC2)C1)c1csc(C2CCCCC2)c1 (stereo not shown) [Compound 109, OC(=O)C1CCC2(CC(C2)NC(=O)C3=CSC(=C3)C4CCCCC4)CC1] | > 10000 nM | 4.99 | –
